Where a SMILES comes first, the peptide text is derived from it. [ ]: non-standard residue; d: D form. pGlu = O=C1CC[C@@H](C(=O)O)N1; Thz = O=C(O)[C@@H]1CSCN1
What was measured:
[1] = (§1) The drug is tested on WLS-082 corresponding to human gut metagenome with ENA study accession number: PRJEB37062 and ENA sample accession number: ERS12561751 for biotransformation under anaerobic condition. The drug concentrations were measured over 9 timepoints collected between 0 and 24 hours of incubation by liquid-chromatography-coupled mass spectrometry (LC–MS); details: 2 µM
[2] = human gut metagenome, 24 h, 2 µM
[3] = human gut metagenome, 24 h, 2 µM; remark: listed apart in the source
[4] = as §1, with “WLS-350” for “WLS-082”, “ERS12561789” for “ERS12561751”; details: 2 µM
[5] = as §1, with “Z-017” for “WLS-082”, “mouse” for “human”, “ERS12561816” for “ERS12561751”; details: 2 µM
[6] = human gut metagenome, 24 h, 2 µM; remark: listed apart in the source
[7] = human gut metagenome, 24 h, 2 µM; remark: listed apart in the source
[8] = as §1, with “WLS-007” for “WLS-082”, “ERS12561742” for “ERS12561751”; details: 2 µM
[9] = as §1, with “Z-010” for “WLS-082”, “to” for “to human gut”, “ERS12561810” for “ERS12561751”; details: 2 µM
[10] = human gut metagenome, 24 h, 2 µM; remark: listed apart in the source
[11] = as §1, with “Z-025” for “WLS-082”, “rabbit” for “human”, “ERS12561824” for “ERS12561751”; details: 2 µM
[12] = human gut metagenome, 24 h, 2 µM; remark: listed apart in the source
[13] = human gut metagenome, 24 h, 2 µM; remark: listed apart in the source
[14] = human gut metagenome, 24 h, 2 µM; remark: listed apart in the source
[15] = as §1, with “WLS-039” for “WLS-082”, “ERS12561746” for “ERS12561751”; details: 2 µM
[16] = as §1, with “WLS-240” for “WLS-082”, “ERS12561773” for “ERS12561751”; details: 2 µM
[17] = human gut metagenome, 24 h, 2 µM; remark: listed apart in the source
[18] = human gut metagenome, 24 h, 2 µM; remark: listed apart in the source
[19] = human gut metagenome, 24 h, 2 µM; remark: listed apart in the source
[20] = as §1, with “WLS-010” for “WLS-082”, “ERS12561743” for “ERS12561751”; details: 2 µM

Measured: Bacterial Biotransformation
Further: call rule not given here.

O=c1[nH]c2ccccc2n1CCCN1CCC(n2c(=O)[nH]c3cc(Cl)ccc32)CC1 [DOMPERIDONE]
Compound NOT metabolized: [1] | [2] | [3] | [4] | [5] | [6] | [7] | [8] | [9] | [10] | [11] | [12] | [13] | [14] | [15] | [16] | [17]

OCCN1CCN(CCCN2c3ccccc3Sc3ccc(C(F)(F)F)cc32)CC1 [FLUPHENAZINE]
Compound NOT metabolized: [5] | [6] | [8] | [17]
Compound metabolized: [1] | [3] | [18] | [4] | [7] | [9] | [10] | [11] | [12] | [13] | [14] | [15] | [19] | [16] | [20]

C=CCN1CC[C@]23c4c5ccc(O)c4O[C@H]2C(=O)CC[C@@]3(O)[C@H]1C5 [NALOXONE]
Compound NOT metabolized: [1] | [2] | [3] | [18] | [4] | [5] | [6] | [7] | [9] | [10] | [11] | [12] | [13] | [14] | [15] | [19] | [16] | [17]

CCCc1nc(C(C)(C)O)c(C(=O)OCc2oc(=O)oc2C)n1Cc1ccc(-c2ccccc2-c2nnn[nH]2)cc1 [OLMESARTAN MEDOXOMIL]
Compound metabolized: [1] | [2] | [3] | [18] | [5] | [7] | [8] | [9] | [11] | [12] | [13] | [15] | [19] | [17]
Compound NOT metabolized: [4] | [6] | [10] | [14] | [16]

NC(=O)N1c2ccccc2CC(=O)c2ccccc21 [OXCARBAZEPINE]
Compound metabolized: [4] | [7] | [9] | [12] | [19]
Compound NOT metabolized: [1] | [2] | [3] | [18] | [5] | [6] | [10] | [11] | [13] | [14] | [15] | [16] | [17]

O=C1CC[C@@H](C(=O)N2CSC[C@H]2C(=O)O)N1 [PIDOTIMOD] ([pGlu]-[Thz]-OH)
Compound NOT metabolized: [1] | [2] | [3] | [18] | [4] | [5] | [6] | [7] | [10] | [11] | [12] | [13] | [14] | [19] | [16] | [20]
Compound metabolized: [9]

COc1cc2nc(N3CCN(C(=O)c4ccco4)CC3)nc(N)c2cc1OC [PRAZOSIN]
Compound metabolized: [1] | [2] | [3] | [10] | [14] | [16] | [20]
Compound NOT metabolized: [18] | [4] | [5] | [6] | [7] | [8] | [9] | [11] | [12] | [15] | [19] | [17]

COC(=O)[C@H]1[C@H]2C[C@@H]3c4[nH]c5cc(OC)ccc5c4CCN3C[C@H]2C[C@@H](OC(=O)c2cc(OC)c(OC)c(OC)c2)[C@@H]1OC [RESERPINE]
Compound NOT metabolized: [18] | [4] | [5] | [8] | [9] | [11] | [19] | [16] | [17]
Compound metabolized: [1] | [2] | [3] | [7] | [12] | [13] | [14] | [15] | [20]
